This data set can be described thus: Stability of Tc-99m labeled compound, labeling purity by HPLC. Format: physicochemical. The note with it: 99mTc-labeled, cysteine and VB1, until 4 hours (Table 11). On the procedure: 2 mL of Tc-99m was added dropwise to a lyophilized vial including 0.1 mg of GP-104, 15 μg of SnCl2, and 10 μg of cysteine, the vial was allowed to stand at room temperature for 10 minutes, and the reaction was terminated by adjusting pH to 7 using a NaOH solution. Labeling purity was confirmed to be 93.21% by HPLC (analysis conditions: Luna C18 250×4.6 mm, phosphate buffer:acetonitrile (100:0, 0 to 5 minutes; 80:20, 5 to 10 minutes; 80:20, 17 minutes; 100:0, 17.1 minutes). 100:0. 20 min), 1.0 mL/min, UV=280 nm).
In order to confirm the effect of cysteine addition after the reaction, the following experiment was performed: 0.1 mg of GP-104 was dissolved in water for injection, the pH was adjusted to about 3.5 when 10 μL of SnCl2 (1.5 mg/mL) and 2 mL of Tc-99m were added thereto, and the resulting mixture was allowed to stand at room temperature for 10 minutes. The reaction was terminated by adjusting the pH to 7 using a NaOH solution and 10 μL of cysteine (1.0 mg/mL). Labeling purity was confirmed to be 91.4% using HPLC in the same manner as in Example 2-7.
After 0.1 mg of GP-104 was dissolved in water for injection, pH was adjusted to about 3.5 and the resulting solution was allowed to stand at room temperature for 10 minutes when 10 μL of SnCl2 (1.5 mg/mL), 10 μL of cysteine (1.0 mg/mL) and 2 mL of Tc-99m were added thereto, and the reaction was terminated by adjusting the pH to 7 using a NaOH solution. Labeling purity was confirmed to be 94.84% using HPLC in the same manner as in Example 2-7.
HCl and NaOH was additionally added dropwise to the solution of Example 2-8 to perform a stability evaluation by adjusting the final pH of the solution to acidic (pH 5.5) and basic (pH 8.5) conditions, and labeling purity was confirmed using HPLC in the same manner as in Example 2-7.
HCl and NaOH was additionally added dropwise to the solution of Example 2-9 to perform a stability evaluation by adjusting the final pH of the solution to acidic (pH 5.5) and basic (pH 8.5) conditions, and labeling purity was confirmed using HPLC in the same manner as in Example 2-7.
HCl and NaOH was additionally added dropwise to the solution of Example 2-10 to perform a stability evaluation by adjusting the final pH of the solution to acidic (pH 5.5) and basic (pH 8.5) conditions, and labeling purity was confirmed using HPLC in the same manner as in Example 2-7.
0.1 mg of GP-105 was dissolved in water for injection, the pH was adjusted to about 3.5 when 10 μL of SnCl2 (1.5 mg/mL) and 2 mL of Tc-99m were added thereto, and the resulting mixture was allowed to stand at room temperature for 10 minutes. The reaction was terminated by adjusting the pH to 7 using a NaOH solution and 10 μL of cysteine (1.0 mg/mL). Labeling purity was confirmed to be 98.1% using HPLC in the same manner as in Example 2-7.
HCl and NaOH was additionally added dropwise to the solution of Example 2-12 to perform a stability evaluation by adjusting the final pH of the solution to acidic (pH 5.5) and basic (pH 8.5) conditions, and labeling purity was confirmed using HPLC in the same manner as in Example 2-7.
HCl and NaOH was additionally added dropwise to the solution of Example 2-13 to perform a stability evaluation by adjusting the final pH of the solution to acidic (pH 5.5) and basic (pH 8.5) conditions, and labeling purity was confirmed using HPLC in the same manner as in Example 2-7.
HCl and NaOH was additionally added dropwise to the solution of Example 2-14 to perform a stability evaluation by adjusting the final pH of the solution to acidic (pH 5.5) and basic (pH 8.5) conditions, and labeling purity was confirmed using HPLC in the same manner as in Example 2-7.

The values below come from patent US12527886B2, “Radiopharmaceuticals and composition for thrombus imaging” (THE ASAN FOUNDATION, priority 2020, dated 2026).

As to `O=C(O)C[C@H](NC(=O)[C@@H]1CCCN(C(=O)CCC2CCNCC2)C1)c1cncc(OCCNC(=O)CN(CC(=O)O)CC(=O)O)c1` [GP-105, 2,2′-((2-((2-((5-((S)-2-carboxy-1-((R)-1-(3-(piperidin-4-yl)propanoyl)piperidine-3-carboxamido)ethyl)pyridin-3-yl)oxy)ethyl)amino)-2-oxoethyl)azanediyl)diacetic acid], the radiochemical purity (acidic conditions) is on record as ≥ 98%, the radiochemical purity (basic conditions) is ≥ 90% and the radiochemical purity (pH of 7) is given as ≥ 94%.
